These results are taken from PubChem BioAssay AID977613 (Broad Institute, 2014).

The test system of this assay is Broad 7084-01 inhibitor HTS, set 2. Kind of assay: single-concentration hits, screen 7084 set 2 (AID 977613).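 Note: host cells are infected with parasite promastigotes that become internalized.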

Molecules are shown by their SMILES. Activity calls are given as the source filed them. The rule behind the calls is not given here. Where only a bound is given, the exact number is not on record here.

Consider `O=C(C[C@@H]1CC[C@@H]2[C@H](COC[C@@H](O)CN2C(=O)C2CC2)O1)NCc1ccncc1`, for which the active concentration is > 10 µM (inactive).

With `O=C(C1CCC1)N1[C@H](CO)[C@@H](c2ccccc2)C12CN(CCC(F)(F)F)C2`, the active concentration is > 10 µM (inactive).

As to `CC=Cc1ccc2n(c1=O)C[C@@H]1[C@@H](CO)[C@H](C(=O)N[C@@H](C)c3ccccc3)N(C(=O)c3cnccn3)[C@H]21` (mixture of isomers), the active concentration is > 10 µM (inactive).

As to `C/C=C/c1ccc([C@@H]2[C@H](CO)N(C(=O)CN(C)C)C23CN(C(=O)C2CCC2)C3)cc1`, the active concentration is > 10 µM (inactive).

For the molecule `O=C(c1cccc(F)c1)N1C[C@@H]2[C@H](c3ccccc31)[C@@H](CO)N2C(=O)C1CCOCC1`, the active concentration was > 10 µM (inactive).

With `C/C=C/c1ccc([C@H]2[C@H](CO)N(S(=O)(=O)Cc3ccccc3)C23CN(C(=O)C2CCCC2)C3)cc1`, the active concentration is > 10 µM (inactive).

In the case of `N#C[C@@H]1[C@H](c2ccccc2C2=CCCCC2)[C@@H](CO)N1C(=O)C1CCOCC1`, the active concentration is > 10 µM (inactive).

Turning to `CC(C)NC(=O)N1CC[C@@H]2[C@H]1c1cc(Br)ccc1N(C)[C@H]2CO`, the active concentration was > 10 µM (inactive).

As to `C/C=C/c1ccccc1[C@@H]1[C@H](C#N)N(C(C)=O)[C@H]1CO`, the active concentration is > 10 µM (inactive).

For the molecule `CN(C)C(=O)C[C@H]1CC[C@@H]2[C@H](COC[C@H](O)CN2CC2CCCC2)O1`, the active concentration is > 10 µM (inactive).

Take `Cn1cnc(CCNC(=O)C[C@@H]2CC[C@H]3[C@@H](COC[C@H](O)CN3C(=O)C3CC3)O2)c1`: the active concentration was > 10 µM (inactive).

For the molecule `COc1ccc(-c2ccc3c(c2)[C@@H]2[C@@H](CCN2C(=O)CN2CCOCC2)[C@H](CO)N3)cc1`, the active concentration was > 10 µM (inactive).

For `C/C=C/c1ccc([C@H]2[C@H]3CN(S(=O)(=O)c4ccccc4)CC(=O)N3[C@H]2CO)cc1`, the active concentration was > 10 µM (inactive).

Turning to `O=C(CC1CC1)N1CC(=O)N2[C@H](CO)[C@H](c3ccc(C#Cc4cccc(F)c4)cc3)[C@@H]2C1`, the active concentration is > 10 µM (inactive).

On to `Cc1ccc(S(=O)(=O)N2CC[C@H]3[C@H](CO)Nc4ccc(C#Cc5ccc(F)cc5)cc4[C@H]32)cc1`, for which the active concentration was > 10 µM (inactive).

For `N#C[C@H]1[C@H](c2ccccc2-c2ccc(F)cc2)[C@@H](CO)N1C(=O)Cc1cccnc1`, the active concentration was > 10 µM (inactive).

`CC(C)CC#Cc1ccc([C@@H]2[C@H]3CN(C(=O)c4ccccn4)CC(=O)N3[C@H]2CO)cc1`: the active concentration is > 10 µM (inactive).

`Cc1ccccc1S(=O)(=O)N1CC[C@@H]2[C@@H](CO)N(C)c3ccc(-c4cccc(C#N)c4)cc3[C@@H]21`: the active concentration was > 10 µM (inactive).

As to `CN(C)C(=O)c1cccc(-c2ccc([C@@H]3[C@@H](CO)N4C(=O)CN(C(=O)C5CCC5)C[C@@H]34)cc2)c1`, the active concentration is > 10 µM (inactive).

On to `CCNC(=O)Nc1ccc2c(c1)C(=O)N(C)[C@H]1CC[C@H](CC(=O)N[C@@H](C)c3ccccc3)O[C@H]1CO2`, for which the active concentration was > 10 µM (inactive).

For the molecule `CCCC#Cc1ccc([C@@H]2[C@@H](CO)N3C(=O)CN(C(=O)CN4CCOCC4)C[C@@H]23)cc1`, the active concentration was > 10 µM (inactive).

Consider `CCCNC(=O)N1CC2(C1)[C@@H](c1ccccc1)[C@@H](CO)N2Cc1ccccn1`, for which the active concentration was > 10 µM (inactive).

For `O=C(NC1CCCC1)N1CCCCN2[C@H](CO)[C@@H](c3ccc(-c4cccnc4)cc3)[C@@H]2C1`, the active concentration was > 10 µM (inactive).

Consider `N#C[C@H]1[C@H](c2ccccc2-c2ccccc2F)[C@H](CO)N1C(=O)Cc1ccccc1`, for which the active concentration was > 10 µM (inactive).

Take `O=S(=O)(Cc1ccccc1)N1[C@H](CO)[C@@H](c2ccccc2)C12CN(CCC(F)(F)F)C2`: the active concentration was > 10 µM (inactive).

On to `Cc1noc(C)c1NC(=O)N1C[C@H](O)COC[C@H]2O[C@@H](CC(=O)NCC3CCCCC3)CC[C@@H]21`, for which the active concentration was > 10 µM (inactive).

In the case of `C[C@@H](O)C#Cc1ccc([C@@H]2[C@@H](CO)N3CCCCN(C(=O)c4ccc5c(c4)OCO5)C[C@H]23)cc1`, the active concentration is > 10 µM (inactive).

On to `COC(=O)C[C@@H]1CC[C@@H]2[C@@H](COc3ccc(NC(=O)c4cccc(Cl)c4)cc3C(=O)N2C)O1`, for which the active concentration was > 10 µM (inactive).

For `CC=Cc1ccc2n(c1=O)C[C@H]1[C@H](CO)[C@@H](C(=O)NCC)[C@@H]2N1Cc1cccc(Cl)c1` (mixture of isomers), the active concentration was > 10 µM (inactive).

With `O=C(Cc1ccccn1)N1CC[C@@H]2[C@H](CO)Nc3ccc(-c4cccc(F)c4)cc3[C@@H]21`, the active concentration was > 10 µM (inactive).

In the case of `O=C(Cc1ccccc1)N1CC[C@@H]2[C@H](CO)Nc3ccc(C4=CCCCC4)cc3[C@@H]21`, the active concentration was > 10 µM (inactive).

As for `O=C1CN(S(=O)(=O)Cc2ccccc2)C[C@H]2[C@@H](c3ccc(C#Cc4ccccc4)cc3)[C@H](CO)N12`, the active concentration was > 10 µM (inactive).

`O=C(C[C@@H]1CC[C@H]2[C@@H](COC[C@@H](O)CN2C(=O)c2cccnc2)O1)NCc1ccccc1`: the active concentration was > 10 µM (inactive).

As for `C[C@H](O)C#Cc1ccc([C@H]2[C@@H](CO)N3CCCCN(C(=O)c4ccc5c(c4)OCO5)C[C@H]23)cc1`, the active concentration is > 10 µM (inactive).

As to `CCC(=O)N1[C@H](CO)[C@H]2c3ccccc3N(S(=O)(=O)c3ccccc3C)C[C@H]21`, the active concentration is > 10 µM (inactive).

For `O=C(c1cccnc1)N1C[C@H]2[C@@H](c3ccccc31)[C@H](CO)N2C(=O)CN1CCOCC1`, the active concentration was less than 10 µM.

Consider `O=C(C1CCCCC1)N1CC(=O)N2[C@H](CO)[C@H](c3ccc(-c4ccccc4F)cc3)[C@@H]2C1`, for which the active concentration was > 10 µM (inactive).

`CC=Cc1ccc2n(c1=O)C[C@H]1[C@H](CO)[C@@H](C(=O)N[C@@H](C)c3ccccc3)N(C(=O)c3cnccn3)[C@@H]21` (mixture of isomers): the active concentration is > 10 µM (inactive).

Turning to `O=C(C[C@H]1CC[C@H]2[C@@H](COC[C@@H](O)CN2C(=O)c2ccccc2F)O1)NCc1ccccc1`, the active concentration was > 10 µM (inactive).

Regarding `C/C=C/c1ccc([C@H]2[C@@H](CO)N(CC3CCCC3)C23CN(C(=O)CC)C3)cc1`, the active concentration was > 10 µM (inactive).

Consider `O=C(c1cccc(F)c1)N1C[C@@H]2[C@H](c3ccccc31)[C@H](CO)N2Cc1cocn1`, for which the active concentration was > 10 µM (inactive).

`O=C(c1ccccc1F)N1CC(=O)N2[C@@H](CO)[C@@H](c3ccc(C#Cc4ccccc4)cc3)[C@@H]2C1`: the active concentration was > 10 µM (inactive).

With `COc1ccc(NC(=O)N2CC(=O)N3[C@H](CO)[C@@H](c4ccc(Br)cc4)[C@@H]3C2)cc1`, the active concentration is > 10 µM (inactive).

On to `CC(=O)N1[C@@H]2c3ccc(-c4cccc(F)c4)c(=O)n3C[C@@H]2[C@@H](CO)[C@@H]1C(=O)NCCCN(C)C`, for which the active concentration was > 10 µM (inactive).

With `O=C(C1CCOCC1)N1CC2(C1)[C@H](c1ccccc1)[C@H](CO)N2CCC(F)(F)F`, the active concentration was > 10 µM (inactive).
